Converted amounts (≈) assume the structure as drawn. Read-outs that look alike come from different tables or passages of the source.
Assays:
[1] = system: Candida albicans (ATCC 90028); experiment: Susceptibility test (CLSI M27-A3 broth microdilution, resazurin readout), MIC90; type: cell-based; details: ATCC90028, C. albicans, 24 h, 37 °C
[2] = system: C. krusei (ATCC 6258); experiment: as above; type: cell-based, Candida krusei; details: Pichia kudriavzevii
[3] = system: C. glabrata (ATCC 90030); experiment: as above; type: cell-based, Candida glabrata; details: Nakaseomyces glabratus, ATCC90030, 24 h, 37 °C
[4] = system: Cryptococcus neoformans (H99/ATCC 208821); experiment: as above; type: cell-based
[5] = system: Histoplasma capsulatum (G217-B/ATCC 26032); experiment: microbe, parasite or virus in culture; type: cell-based; details: ATCC26032, 144 h
[6] = system: T. rubrum (ATCC 28289); experiment: Susceptibility assay for dermatophytes (CLSI M38-A2, resazurin), MIC90; type: cell-based; details: Trichophyton rubrum, ATCC28289, 96 h, 35 °C
[7] = system: Trichophyton mentagrophytes (ATCC 11481); experiment: as above; type: cell-based; details: Trichophyton mentagrophytes, ATCC11481, 96 h, T. mentagrophytes, 35 °C, read-out: MIC90
[8] = system: Candida albicans (ATCC 90028); experiment: Minimum fungicidal concentration (MFC); type: cell-based; details: ATCC90028, C. albicans
[9] = system: C. krusei (ATCC 6258); experiment: Minimum fungicidal concentration (MFC); type: cell-based, Candida krusei; details: Pichia kudriavzevii, ATCC6258
[10] = system: C. glabrata (ATCC 90030); experiment: Minimum fungicidal concentration (MFC); type: cell-based, Candida glabrata; details: Nakaseomyces glabratus, ATCC90030
[11] = system: Cryptococcus neoformans (H99/ATCC 208821); experiment: Minimum fungicidal concentration (MFC); type: cell-based; details: ATCC208821, C. neoformans
[12] = system: Histoplasma capsulatum (G217-B/ATCC 26032); experiment: microbe, parasite or virus in culture; type: cell-based; details: ATCC26032
[13] = system: Paracoccidioides brasiliensis (Pb 18); experiment: microbe, parasite or virus in culture; type: cell-based; details: Paracoccidioides brasiliensis
[14] = system: T. rubrum (ATCC 28289); experiment: Minimum fungicidal concentration (MFC); type: cell-based, Trichophyton rubrum; details: Trichophyton rubrum, ATCC28289
[15] = system: Trichophyton mentagrophytes (ATCC 11481); experiment: Minimum fungicidal concentration (MFC); type: cell-based; details: T. mentagrophytes; for MFC: Trichophyton mentagrophytes, ATCC11481
[16] = system: A549 (ATCC CCL-185) lung epithelial cell line; experiment: Cytotoxicity assay in monolayer by resazurin colorimetric method; type: cell-based; details: Homo sapiens, A549 cells, 72 h
[17] = in vitro; details: human

Row | SMILES | MIC90 [1] [µg/mL] | MIC90 ([2]; ATCC6258, 24 h) [µg/mL] | MIC90 [3] [µg/mL] | MIC90 ([4]; ATCC208821, 48 h) [µg/mL] | MIC90 [5] [µg/mL] | MIC90 [6] [µg/mL] | MIC90 [7] [µg/mL] | MFC [8] [µg/mL] | MFC [9] [µg/mL] | MFC ([10]; C. glabrata, read-out: MFC) [µg/mL] | MFC [11] [µg/mL] | MFC [12] [µg/mL] | MFC [13] [µg/mL] | MFC [14] [µg/mL] | MFC [15] [µg/mL] | IC50 [16] [µg/mL] | IC50 [17] [µg/mL] | other results
1 | O=C(NCc1ccccn1)c1ccc([N+](=O)[O-])o1 [Compound 4] | 250 (≈ 1010 µM) | 250 (≈ 1010 µM) | > 250 | 31.2 (≈ 126 µM) | 3.9 (≈ 15.8 µM) | 125 (≈ 506 µM) | 31.2 (≈ 126 µM) | > 250 | 250 (≈ 1010 µM) | > 250 | 62.5 (≈ 253 µM) | 3.9 (≈ 15.8 µM) | 7.81 (≈ 31.6 µM) | 125 (≈ 506 µM) | 250 (≈ 1010 µM) | 29.5 (≈ 119 µM) | 135 (≈ 547 µM) | fungistatic / fungicidal profile ([15]; MFC versus MIC90): fungistatic profile
2 | C[C@@H]1[C@H](O)[C@@H](C)/C=C/C=C/C=C/C=C/C=C/C=C/C=C/[C@H](O[C@@H]2O[C@H](C)[C@@H](O)[C@H](N)[C@@H]2O)C[C@@H]2O[C@](O)(C[C@@H](O)C[C@@H](O)[C@H](O)CC[C@@H](O)C[C@@H](O)CC(=O)O[C@H]1C)C[C@H](O)[C@H]2C(=O)O [AmB, amphotericin B, reference compound] |  |  |  |  | 0.03 (≈ 0.0325 µM) |  |  |  |  |  |  |  |  |  |  |  |  | MIC90 ([2]; ATCC6258, C. krusei, 24 h, 37 °C, read-out: MIC90): 1 µg/mL (≈ 1.08 µM); MIC90 ([4]; ATCC208821, C. neoformans, 48 h, 37 °C, read-out: MIC90): 0.06 µg/mL (≈ 0.0649 µM)
3 | CN(C)CCCNC(=O)c1ccc([N+](=O)[O-])o1 [Compound 6] | > 250 | > 250 | > 250 | 250 (≈ 1040 µM) | > 250 | > 250 | > 250 | > 250 | > 250 | > 250 | 250 (≈ 1040 µM) | > 250 | 31.2 (≈ 130 µM) | > 250 | > 250 | 13.2 (≈ 54.8 µM) | 15.6 (≈ 64.7 µM) | 
4 | O=C(/C=C/c1ccc([N+](=O)[O-])o1)c1cc(F)c(Cl)cc1Cl [Compound 17, (E)-1-(2,4-dichloro-5-fluorophenyl)-3-(5-nitrofuran-2-yl)prop-2-en-1-one] | > 250 | > 250 | > 250 | ≥ 250 | > 250 | > 250 | > 250 | > 250 | > 250 | > 250 | ≥ 250 | > 250 | 3.9 (≈ 11.8 µM) | > 250 | > 250 | 68.2 (≈ 207 µM) | 1.56 (≈ 4.73 µM) | 
5 | O=C(/C=C/c1ccc([N+](=O)[O-])o1)c1ccc(F)cc1 [Compound 9] | 15.6 (≈ 59.8 µM) | 250 (≈ 957 µM) | 31.2 (≈ 120 µM) | 7.81 (≈ 29.9 µM) | 3.9 (≈ 14.9 µM) | 0.98 (≈ 3.75 µM) | 1.95 (≈ 7.47 µM) | 31.2 (≈ 120 µM) | > 250 | > 250 | 15.6 (≈ 59.8 µM) | 3.9 (≈ 14.9 µM) | 1.95 (≈ 7.47 µM) | 1.95 (≈ 7.47 µM) | 1.95 (≈ 7.47 µM) | 23.4 (≈ 89.6 µM) | 47.2 (≈ 181 µM) | 
6 | O=C(/C=C/c1ccc([N+](=O)[O-])o1)c1ccc(Cl)cc1 [Compound 10] | 250 (≈ 900 µM) | > 250 | > 250 | 250 (≈ 900 µM) | 7.81 (≈ 28.1 µM) | 3.9 (≈ 14 µM) | 3.9 (≈ 14 µM) | > 250 | > 250 | > 250 | ≥ 250 | 15.6 (≈ 56.3 µM) | 0.98 (≈ 3.53 µM) | 7.81 (≈ 28.1 µM) | 7.81 (≈ 28.1 µM) | 38.7 (≈ 139 µM) | 215 (≈ 776 µM) | 
7 | CSc1ccc(C(=O)/C=C/c2ccc([N+](=O)[O-])o2)cc1 [Compound 13] | > 250 | > 250 | > 250 | ≥ 250 | 125 (≈ 432 µM) | 0.98 (≈ 3.39 µM) | 0.98 (≈ 3.39 µM) | > 250 | > 250 | > 250 | ≥ 250 | 125 (≈ 432 µM) | 0.98 (≈ 3.39 µM) | 1.95 (≈ 6.74 µM) | 0.98 (≈ 3.39 µM) | 17.9 (≈ 61.9 µM) | 4.15 (≈ 14.3 µM) | 
8 | O=C(/C=C/c1ccc([N+](=O)[O-])o1)c1ccc(-n2ccnc2)cc1 [Compound 14] | 15.6 (≈ 50.4 µM) | 15.6 (≈ 50.4 µM) | 7.81 (≈ 25.3 µM) | 3.9 (≈ 12.6 µM) | 7.81 (≈ 25.3 µM) | 1.95 (≈ 6.3 µM) | 1.95 (≈ 6.3 µM) | 62.5 (≈ 202 µM) | 31.2 (≈ 101 µM) |  | 3.9 (≈ 12.6 µM) | 7.81 (≈ 25.3 µM) | 1.95 (≈ 6.3 µM) | 3.9 (≈ 12.6 µM) | 1.95 (≈ 6.3 µM) | 33.4 (≈ 108 µM) | 26.8 (≈ 86.7 µM) | MFC [10]: 7.81 µg/mL (≈ 25.3 µM)
9 | O=C(NCCc1c[nH]c2ccccc12)c1ccc([N+](=O)[O-])o1 [Compound 7] | 250 (≈ 835 µM) | 250 (≈ 835 µM) | > 250 | 62.5 (≈ 209 µM) | 0.98 (≈ 3.27 µM) | 125 (≈ 418 µM) | 125 (≈ 418 µM) | > 250 | > 250 | > 250 | 62.5 (≈ 209 µM) | 0.98 (≈ 3.27 µM) | 1.95 (≈ 6.52 µM) | > 250 | > 250 | 8.58 (≈ 28.7 µM) | 71.2 (≈ 238 µM) | 
10 | O=C(/C=C/c1ccc([N+](=O)[O-])o1)c1ccccc1 [Compound 8] | 7.8 (≈ 32.1 µM) | 250 (≈ 1030 µM) | 7.81 (≈ 32.1 µM) | 31.2 (≈ 128 µM) | 15.6 (≈ 64.2 µM) | 0.98 (≈ 4.03 µM) | 0.98 (≈ 4.03 µM) | > 250 | > 250 | > 250 | 31.2 (≈ 128 µM) | 15.6 (≈ 64.2 µM) | 1.95 (≈ 8.02 µM) | 1.95 (≈ 8.02 µM) | 1.95 (≈ 8.02 µM) | 53.8 (≈ 221 µM) | 6.66 (≈ 27.4 µM) | 

Reference: paper PMC8950151, “Synthesis and Evaluation of the Antifungal and Toxicological Activity of Nitrofuran Derivatives” (Pharmaceutics, 2022)
